Structures are written as SMILES.

Data set [1] deals with PI3kα (Homo sapiens, UniProt P42336). Kind of data set: Fluorescent (HTRF) determination of PI3 kinase enzyme activity, PI3Kα. The data set is classed as biochemical. As to conditions: 1 uM. Put shortly:
(§1)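 HTRF detection of PIP3 from PIP2 (1.38 μM in reaction mix) with 10 mM MgCl2, 5 mM DTT; compound preincubated with enzyme 10 min, then ATP (400 μM addition) 30 min at room temperature. Percent inhibition versus blank and enzyme controls at 1 μM (α, β) and 0.3 or 0.1 μM (γ, δ); IC50 also fitted.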
A general note: Time-resolved FRET reads energy transfer from a long-lived donor to a nearby acceptor.

Data set [2] deals with PI3kβ (Homo sapiens, UniProt P42338). As to the kind of experiment: Fluorescent (HTRF) determination of PI3 kinase enzyme activity, PI3Kβ. The data set is classed as biochemical. As to conditions: 1 uM. Summed up:
as §1

Data set [3] has as its target PI3kγ (Homo sapiens, UniProt P48736). As to the kind of experiment: Fluorescent (HTRF) determination of PI3 kinase enzyme activity, PI3Kγ. The data set is classed as biochemical. As to conditions: for inhibition at 0.1 µM / % inhibition (PI3kγ) 100 nM: 100 nM (Examples 60-137); for inhibition at 0.3 µM: 300 nM (Examples 1-59); for % inhibition (PI3kγ) 100 nM: 0.1 µM. Put shortly: as §1

For data set [4], the target named is PI3kδ (Homo sapiens, UniProt O00329). As to the kind of experiment: Fluorescent (HTRF) determination of PI3 kinase enzyme activity, PI3Kδ. The format is biochemical. The conditions noted are these: for inhibition at 0.1 µM / % inhibition (PI3kδ) 100 nM: 100 nM (Examples 60-137); for inhibition at 0.3 µM: 300 nM (Examples 1-59); for % inhibition (PI3kδ) 100 nM: 0.1 µM. Put shortly: as §1
Sequence of PI3kδ (O00329 whole entry): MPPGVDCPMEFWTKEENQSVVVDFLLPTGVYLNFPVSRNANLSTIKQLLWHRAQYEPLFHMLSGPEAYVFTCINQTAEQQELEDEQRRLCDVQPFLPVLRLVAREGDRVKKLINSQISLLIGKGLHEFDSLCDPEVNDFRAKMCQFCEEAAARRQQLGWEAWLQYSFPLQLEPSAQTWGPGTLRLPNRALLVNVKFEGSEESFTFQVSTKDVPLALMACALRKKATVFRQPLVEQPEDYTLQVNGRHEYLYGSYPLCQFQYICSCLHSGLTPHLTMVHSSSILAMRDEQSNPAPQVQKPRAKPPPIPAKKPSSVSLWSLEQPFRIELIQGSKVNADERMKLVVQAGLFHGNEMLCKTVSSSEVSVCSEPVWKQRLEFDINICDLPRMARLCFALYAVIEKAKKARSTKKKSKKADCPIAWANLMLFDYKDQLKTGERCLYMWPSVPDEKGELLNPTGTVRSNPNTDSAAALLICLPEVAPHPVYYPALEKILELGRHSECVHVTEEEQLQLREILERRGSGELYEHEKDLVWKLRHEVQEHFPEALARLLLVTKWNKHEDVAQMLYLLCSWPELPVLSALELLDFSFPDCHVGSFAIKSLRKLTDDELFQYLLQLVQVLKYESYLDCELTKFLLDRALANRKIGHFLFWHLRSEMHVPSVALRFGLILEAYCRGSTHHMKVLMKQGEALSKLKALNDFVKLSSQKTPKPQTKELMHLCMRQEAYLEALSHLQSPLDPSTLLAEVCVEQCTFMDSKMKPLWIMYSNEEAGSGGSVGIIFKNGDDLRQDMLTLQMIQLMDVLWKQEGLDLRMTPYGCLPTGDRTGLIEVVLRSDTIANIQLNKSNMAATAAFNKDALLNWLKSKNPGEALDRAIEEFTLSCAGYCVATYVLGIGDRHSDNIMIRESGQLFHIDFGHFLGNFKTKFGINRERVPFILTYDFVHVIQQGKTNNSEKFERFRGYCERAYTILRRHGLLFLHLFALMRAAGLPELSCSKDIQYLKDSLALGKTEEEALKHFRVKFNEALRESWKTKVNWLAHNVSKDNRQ
Sequence of PI3kδ (P27986 whole entry partner): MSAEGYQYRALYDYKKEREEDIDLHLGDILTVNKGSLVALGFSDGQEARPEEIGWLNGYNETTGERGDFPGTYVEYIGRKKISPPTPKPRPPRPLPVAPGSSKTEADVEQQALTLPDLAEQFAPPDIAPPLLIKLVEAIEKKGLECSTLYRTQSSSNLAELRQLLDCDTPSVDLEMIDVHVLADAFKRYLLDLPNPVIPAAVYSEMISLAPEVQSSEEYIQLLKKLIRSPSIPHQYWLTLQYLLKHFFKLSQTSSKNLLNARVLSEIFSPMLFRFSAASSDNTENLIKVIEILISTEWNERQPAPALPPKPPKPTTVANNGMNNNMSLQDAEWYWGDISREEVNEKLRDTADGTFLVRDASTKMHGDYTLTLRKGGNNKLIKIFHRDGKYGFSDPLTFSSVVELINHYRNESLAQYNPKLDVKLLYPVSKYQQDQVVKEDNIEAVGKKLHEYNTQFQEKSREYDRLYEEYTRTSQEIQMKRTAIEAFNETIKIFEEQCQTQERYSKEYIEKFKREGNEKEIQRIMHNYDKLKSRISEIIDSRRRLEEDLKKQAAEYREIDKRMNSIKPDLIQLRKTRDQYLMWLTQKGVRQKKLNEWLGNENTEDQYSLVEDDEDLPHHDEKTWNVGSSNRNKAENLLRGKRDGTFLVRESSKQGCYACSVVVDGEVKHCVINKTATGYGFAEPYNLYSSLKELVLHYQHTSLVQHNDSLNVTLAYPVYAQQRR

Sequence of PI3kγ (P48736 whole entry): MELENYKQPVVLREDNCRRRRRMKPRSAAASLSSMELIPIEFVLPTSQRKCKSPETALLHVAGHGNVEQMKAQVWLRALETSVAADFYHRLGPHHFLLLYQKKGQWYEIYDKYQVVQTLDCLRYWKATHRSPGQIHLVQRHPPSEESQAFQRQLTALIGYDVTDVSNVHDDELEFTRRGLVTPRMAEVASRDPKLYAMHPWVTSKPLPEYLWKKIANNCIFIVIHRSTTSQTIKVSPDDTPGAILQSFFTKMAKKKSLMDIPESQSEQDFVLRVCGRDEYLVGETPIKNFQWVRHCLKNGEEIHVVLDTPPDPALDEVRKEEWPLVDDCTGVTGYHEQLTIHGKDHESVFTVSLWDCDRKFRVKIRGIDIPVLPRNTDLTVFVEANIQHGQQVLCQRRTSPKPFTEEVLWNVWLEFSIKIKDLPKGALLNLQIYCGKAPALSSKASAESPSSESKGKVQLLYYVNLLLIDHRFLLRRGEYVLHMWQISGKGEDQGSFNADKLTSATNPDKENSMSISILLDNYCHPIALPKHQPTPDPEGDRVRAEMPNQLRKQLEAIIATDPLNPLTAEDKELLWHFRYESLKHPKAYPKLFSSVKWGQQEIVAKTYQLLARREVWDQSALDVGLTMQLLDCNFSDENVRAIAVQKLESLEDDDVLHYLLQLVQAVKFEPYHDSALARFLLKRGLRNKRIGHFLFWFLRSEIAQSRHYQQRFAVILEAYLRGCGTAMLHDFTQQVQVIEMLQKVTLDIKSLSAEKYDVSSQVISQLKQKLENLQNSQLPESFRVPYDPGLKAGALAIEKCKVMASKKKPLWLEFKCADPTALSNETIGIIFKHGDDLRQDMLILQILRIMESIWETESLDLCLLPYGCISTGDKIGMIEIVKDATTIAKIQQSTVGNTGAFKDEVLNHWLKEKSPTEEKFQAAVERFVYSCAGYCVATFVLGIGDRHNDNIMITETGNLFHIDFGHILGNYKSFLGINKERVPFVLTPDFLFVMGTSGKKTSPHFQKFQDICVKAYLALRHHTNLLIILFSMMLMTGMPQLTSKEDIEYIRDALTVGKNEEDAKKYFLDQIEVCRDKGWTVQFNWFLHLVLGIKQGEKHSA
Sequence of PI3kα (P42336 whole entry): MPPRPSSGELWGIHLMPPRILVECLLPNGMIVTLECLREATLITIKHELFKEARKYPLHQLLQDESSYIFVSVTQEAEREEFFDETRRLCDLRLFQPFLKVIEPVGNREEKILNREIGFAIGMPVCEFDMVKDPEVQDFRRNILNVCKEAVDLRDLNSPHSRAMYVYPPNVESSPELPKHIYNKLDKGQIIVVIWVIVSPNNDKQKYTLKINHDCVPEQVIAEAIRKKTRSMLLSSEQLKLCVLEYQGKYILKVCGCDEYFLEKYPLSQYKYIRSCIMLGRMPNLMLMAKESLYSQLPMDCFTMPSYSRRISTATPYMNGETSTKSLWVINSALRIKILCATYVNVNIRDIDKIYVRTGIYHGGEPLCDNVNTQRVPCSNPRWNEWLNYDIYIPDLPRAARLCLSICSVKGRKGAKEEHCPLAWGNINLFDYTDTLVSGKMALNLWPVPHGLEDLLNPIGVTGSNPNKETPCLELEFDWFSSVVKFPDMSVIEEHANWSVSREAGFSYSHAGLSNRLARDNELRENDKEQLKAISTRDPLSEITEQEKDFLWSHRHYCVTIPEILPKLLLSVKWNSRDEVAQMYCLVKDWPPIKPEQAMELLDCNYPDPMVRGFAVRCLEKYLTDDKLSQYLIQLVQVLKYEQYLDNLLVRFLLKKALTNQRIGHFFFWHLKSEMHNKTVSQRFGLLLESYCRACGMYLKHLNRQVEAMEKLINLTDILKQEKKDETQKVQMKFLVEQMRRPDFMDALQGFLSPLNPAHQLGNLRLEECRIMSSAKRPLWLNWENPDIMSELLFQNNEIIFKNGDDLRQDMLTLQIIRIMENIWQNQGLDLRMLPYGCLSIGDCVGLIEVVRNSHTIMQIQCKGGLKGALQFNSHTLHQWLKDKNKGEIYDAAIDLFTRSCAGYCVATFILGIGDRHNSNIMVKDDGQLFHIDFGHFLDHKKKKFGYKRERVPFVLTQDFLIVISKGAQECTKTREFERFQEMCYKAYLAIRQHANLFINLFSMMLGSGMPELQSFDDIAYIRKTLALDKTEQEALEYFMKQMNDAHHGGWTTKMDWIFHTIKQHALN
Sequence of PI3kα (P27986 whole entry partner): as the sequence (P27986 whole entry partner) above
Sequence of PI3kβ (P42338 whole entry): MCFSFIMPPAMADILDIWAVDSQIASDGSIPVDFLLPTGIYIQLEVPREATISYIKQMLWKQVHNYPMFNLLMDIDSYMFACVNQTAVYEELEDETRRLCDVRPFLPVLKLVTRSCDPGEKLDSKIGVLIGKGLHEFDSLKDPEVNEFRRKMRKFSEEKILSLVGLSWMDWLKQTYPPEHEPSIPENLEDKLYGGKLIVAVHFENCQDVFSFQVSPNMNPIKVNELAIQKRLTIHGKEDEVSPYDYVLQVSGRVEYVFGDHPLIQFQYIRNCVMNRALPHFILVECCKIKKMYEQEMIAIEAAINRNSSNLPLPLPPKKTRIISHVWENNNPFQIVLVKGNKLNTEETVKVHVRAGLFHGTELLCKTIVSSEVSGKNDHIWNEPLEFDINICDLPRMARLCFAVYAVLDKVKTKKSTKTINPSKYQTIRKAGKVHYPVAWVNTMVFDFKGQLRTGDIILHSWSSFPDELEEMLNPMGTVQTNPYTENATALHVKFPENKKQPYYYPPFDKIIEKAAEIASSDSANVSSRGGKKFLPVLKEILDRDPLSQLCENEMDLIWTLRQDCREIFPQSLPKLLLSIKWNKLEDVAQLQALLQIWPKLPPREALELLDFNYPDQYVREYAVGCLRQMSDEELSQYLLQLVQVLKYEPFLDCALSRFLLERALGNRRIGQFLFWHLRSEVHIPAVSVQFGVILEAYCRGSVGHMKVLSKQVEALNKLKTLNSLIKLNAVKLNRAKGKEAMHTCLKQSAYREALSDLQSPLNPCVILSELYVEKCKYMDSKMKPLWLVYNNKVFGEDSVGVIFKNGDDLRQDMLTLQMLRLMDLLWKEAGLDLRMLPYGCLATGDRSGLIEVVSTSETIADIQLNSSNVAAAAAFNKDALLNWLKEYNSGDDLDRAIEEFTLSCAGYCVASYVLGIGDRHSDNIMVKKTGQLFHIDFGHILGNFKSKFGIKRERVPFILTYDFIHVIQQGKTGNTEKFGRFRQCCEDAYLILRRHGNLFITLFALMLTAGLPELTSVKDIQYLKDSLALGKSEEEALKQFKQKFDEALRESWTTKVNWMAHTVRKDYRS
Sequence of PI3kβ (P27986 whole entry partner): as the sequence (P27986 whole entry partner) above

For orientation: inhibition means the percentage by which the read-out fell short of the control. A higher inhibition goes with strong suppression. Usually melting point stands for the temperature, or range, at which the solid turns liquid. On to `CC(=O)Nc1ccc(-c2nn(C(C)c3oc4cccc(F)c4c(=O)c3-c3cccc(F)c3)c3ncnc(N)c23)cc1F` (centres unmarked) [Example 82, N-(4-(4-amino-1-(1-(5-fluoro-3-(3-fluorophenyl)-4-oxo-4H-chromen-2-yl)ethyl)-1H-pyrazolo[3,4-d]pyrimidin-3-yl)-2-fluorophenyl)acetamide], for which the melting point is 220 to 223 °C. This compound returned an inhibition at 1 µM in data set [1] of 25 to 50%. For the same compound, the inhibition at 1 µM in data set [2] was in the range of 25 to 50%. In data set [3], this compound yielded an inhibition at 0.1 µM of 25 to 50%. The compound also registered an inhibition at 0.1 µM in data set [4] of 25 to 50%.

For the compound `CC(C)Oc1ccc(-c2nn(C(C)c3oc4cccc(N5CCOCC5)c4c(=O)c3-c3ccccc3)c3ncnc(N)c23)cc1F` (centres unmarked) [Example 121, 2-(1-(4-amino-3-(3-fluoro-4-isopropoxyphenyl)-1H-pyrazolo[3,4-d]pyrimidin-1-yl)ethyl)-5-morpholino-3-phenyl-4H-chromen-4-one], the melting point lay within 211 to 214 °C. Also, in data set [1], the inhibition at 1 µM lay in the range of 25 to 50%. Further, the inhibition at 1 µM in data set [2] is 25 to 50%. In data set [3], the inhibition at 0.1 µM was 50 to 75%. Further, the inhibition at 0.1 µM in data set [4] lay within 0 to 25%.

The compound `CC(c1oc2cccc(F)c2c(=O)c1-c1cccc(F)c1)n1nc(-c2ccc(CNC(=O)OC(C)(C)C)o2)c2c(N)ncnc21` (centres unmarked) [Example 74, tert-butyl (5-(4-amino-1-(1-(5-fluoro-3-(3-fluorophenyl)-4-oxo-4H-chromen-2-yl)ethyl)-1H-pyrazolo[3,4-d]pyrimidin-3-yl)furan-2-yl)methylcarbamate] displayed a melting point of 163 to 166 °C. In data set [1], this compound had an inhibition at 1 µM of 0 to 25%. This compound gave an inhibition at 1 µM in data set [2] of 25 to 50%. In data set [3], this compound returned an inhibition at 0.1 µM of 25 to 50%. This compound gave an inhibition at 0.1 µM in data set [4] of 50 to 75%.

The IC50 is the concentration at which inhibition is half-maximal. Low readings indicate inhibition by little substance, high ones a need for much substance. `CC(C)C(=O)Nc1ccc(-c2nn(C(C)c3oc4cccc(F)c4c(=O)c3-c3cccc(F)c3)c3ncnc(N4CCOCC4)c23)cc1F` (centres unmarked) [Example 87, N-(2-fluoro-4-(1-(1-(5-fluoro-3-(3-fluorophenyl)-4-oxo-4H-chromen-2-yl)ethyl)-4-morpholino-1H-pyrazolo[3,4-d]pyrimidin-3-yl)phenyl)isobutyramide]: the melting point lay within 168 to 170 °C. For the same compound, the inhibition at 1 µM in data set [1] is 25 to 50%. In data set [2], the inhibition at 1 µM was in the range of 50 to 75%. Also, the inhibition at 0.1 µM in data set [3] lay in the range of 0 to 25%. In data set [4], this compound gave an IC50 of 100 to 300 nM and an inhibition at 0.1 µM of 50 to 75%.

As for `Cc1ccc(-c2nn(C(C)c3oc4cccc(F)c4c(=O)c3-c3cccc(F)c3)c3ncnc(N)c23)s1` (centres unmarked) [Example 62, 2-(1-(4-amino-3-(5-methylthiophen-2-yl)-1H-pyrazolo[3,4-d]pyrimidin-1-yl)ethyl)-5-fluoro-3-(3-fluorophenyl)-4H-chromen-4-one], the melting point was 223 to 226 °C. For the same compound, the inhibition at 1 µM in data set [1] is 0 to 25%. In data set [2], this compound displayed an inhibition at 1 µM of 50 to 75%. In addition, the inhibition at 0.1 µM in data set [3] is 25 to 50%. The inhibition at 0.1 µM in data set [4] was in the range of 50 to 75%.

As to `CC(c1oc2cccc(F)c2c(=O)c1-c1cccc(F)c1)n1nc(-c2ccc(OC3COC3)c(F)c2)c2c(N)ncnc21` (centres unmarked) [Example 46, 2-(1-(4-amino-3-(3-fluoro-4-(oxetan-3-yloxy)phenyl)-1H-pyrazolo[3,4-d]pyrimidin-1-yl)ethyl)-5-fluoro-3-(3-fluorophenyl)-4H-chromen-4-one], the melting point lay in the range of 235 to 237 °C. Besides, the inhibition at 1 µM in data set [1] is 0 to 25%. This compound displayed an inhibition at 1 µM in data set [2] of 50 to 75%. The same compound showed an inhibition at 0.3 µM in data set [3] of 50 to 75%. The compound further returned an inhibition at 0.3 µM in data set [4] of 25 to 50%.

As for `CC(C)C(=O)Nc1ccc(-c2nn(C(C)c3oc4cccc(F)c4c(=O)c3-c3ccc(F)cc3)c3ncnc(N4CCOCC4)c23)cc1F` (centres unmarked) [Example 86, N-(2-fluoro-4-(1-(1-(5-fluoro-3-(4-fluorophenyl)-4-oxo-4H-chromen-2-yl)ethyl)-4-morpholino-1H-pyrazolo[3,4-d]pyrimidin-3-yl)phenyl)isobutyramide], the melting point fell in the range of 165 to 167 °C. Besides, in data set [1], the inhibition at 1 µM lay within 0 to 25%. Moreover, in data set [3], the IC50 was > 500 nM and the inhibition at 0.1 µM lay in the range of 25 to 50%. In data set [4], this compound yielded an inhibition at 0.1 µM of 50 to 75%.

In the case of `CC(c1oc2cccc(F)c2c(=O)c1-c1cccc(F)c1)n1cnc2c(N(C)C)ncnc21` (single isomer, unassigned) [Example 130], the melting point lay in the range of 198 to 200 °C. In data set [2], the inhibition at 1 µM is 25 to 50%. This compound displayed an inhibition at 0.1 µM in data set [3] of 25 to 50%. Also, in data set [4], the inhibition at 0.1 µM fell in the range of 25 to 50%.

In turn, `CC(c1oc2cccc(F)c2c(=O)c1-c1cccc(F)c1)n1nc(-c2ccc3c(c2)CNC3=O)c2c(N)ncnc21` (centres unmarked) [Example 123, 5-(4-amino-1-(1-(5-fluoro-3-(3-fluorophenyl)-4-oxo-4H-chromen-2-yl)ethyl)-1H-pyrazolo[3,4-d]pyrimidin-3-yl)isoindolin-1-one] came in with a melting point of 293 to 296 °C. This compound also registered an inhibition at 1 µM in data set [1] of 0 to 25%. This compound also came in with an inhibition at 1 µM in data set [2] of 25 to 50%. The same compound yielded an inhibition at 0.1 µM in data set [3] of 0 to 25%. Further, the inhibition at 0.1 µM in data set [4] is 50 to 75%.

For `CC(C)Oc1ccc(-c2nn(C(C)c3oc4cccc(F)c4c(=O)c3-c3cccc(F)c3)c3ncnc(N4CCOCC4)c23)cc1F` (centres unmarked) [Example 85, 5-fluoro-2-(1-(3-(3-fluoro-4-isopropoxyphenyl)-4-morpholino-1H-pyrazolo[3,4-d]pyrimidin-1-yl)ethyl)-3-(3-fluorophenyl)-4H-chromen-4-one], the melting point was in the range of 116 to 119 °C. This compound also returned an inhibition at 1 µM in data set [1] of 0 to 25%. Also, the inhibition at 1 µM in data set [2] was 25 to 50%. For the same compound, the “% inhibition (PI3kγ) 100 nM” value in data set [3] is on record as “C (C=>25 to 50%)”. In addition, in data set [4], the “% inhibition (PI3kδ) 100 nM” value was “C (C=>25 to 50%)”.

For the compound `Cc1cccc2oc([C@H](C)n3nc(-c4ccc(OC(C)C)c(F)c4)c4c(N)ncnc43)c(-c3ccccc3)c(=O)c12` (single isomer, unassigned) [Example 137], the melting point was in the range of 208 to 210 °C. The same compound had an inhibition at 1 µM in data set [1] of 0 to 25%. The same compound displayed an inhibition at 1 µM in data set [2] of 50 to 75%. This compound gave an inhibition at 0.1 µM in data set [3] of 0 to 25%. In data set [4], this compound yielded an inhibition at 0.1 µM of 25 to 50%.

`CC(c1oc2cccc(F)c2c(=O)c1-c1cccc(F)c1)n1nc(-c2ccc(S(N)(=O)=O)cc2)c2c(N)ncnc21` (centres unmarked) [Example 60, 4-(4-amino-1-(1-(5-fluoro-3-(3-fluorophenyl)-4-oxo-4H-chromen-2-yl)ethyl)-1H-pyrazolo[3,4-d]pyrimidin-3-yl)benzenesulfonamide] showed a melting point of 232 to 235 °C. The same compound showed an inhibition at 1 µM in data set [1] of 0 to 25%. In data set [2], this compound came in with an inhibition at 1 µM of 25 to 50%. In data set [3], the inhibition at 0.1 µM lay in the range of 25 to 50%. Moreover, the inhibition at 0.1 µM in data set [4] was in the range of 25 to 50%.

For `CC(Nc1ncnc2[nH]cnc12)c1oc2cccc(F)c2c(=O)c1-c1cccc(F)c1` (centres unmarked) [Example 69, 2-(1-(9H-purin-6-ylamino)ethyl)-5-fluoro-3-(3-fluorophenyl)-4H-chromen-4-one], the melting point lay in the range of 247 to 249 °C. For the same compound, in data set [2], the “% inhibition (PI3kβ) 1 uM” value was “C (C=>25 to 50%)”. The “% inhibition (PI3kγ) 100 nM” value in data set [3] is “A (A=>75 to 100%)”. Further, in data set [4], the “% inhibition (PI3kδ) 100 nM” value is “B (B=>50 to 75%)”.

Take `CC(c1oc2cccc(F)c2c(=O)c1-c1cccc(F)c1)n1nc(-c2ccc(N3CCOCC3)c(Cl)c2)c2c(N)ncnc21` (single isomer, unassigned) [Example 127]: the melting point fell in the range of 260 to 262 °C. In data set [1], this compound yielded an inhibition at 1 µM of 0 to 25%. The inhibition at 1 µM in data set [2] fell in the range of 50 to 75%. In data set [3], the inhibition at 0.1 µM fell in the range of 0 to 25%. In data set [4], this compound gave an inhibition at 0.1 µM of 50 to 75%.

For `COC(=O)c1ccc(-c2nn(C(C)c3oc4cccc(F)c4c(=O)c3-c3cccc(F)c3)c3ncnc(N)c23)c(F)c1` (centres unmarked) [Example 64, methyl 4-(4-amino-1-(1-(5-fluoro-3-(3-fluorophenyl)-4-oxo-4H-chromen-2-yl)ethyl)-1H-pyrazolo[3,4-d]pyrimidin-3-yl)-3-fluorobenzoate], the melting point is 258 to 260 °C. Moreover, in data set [2], the inhibition at 1 µM is 25 to 50%. Moreover, the inhibition at 0.1 µM in data set [3] is 25 to 50%. In addition, the inhibition at 0.1 µM in data set [4] lay within 50 to 75%.

Consider `CC(C)C(=O)Nc1ccc(-c2nn(C(C)c3oc4cccc(F)c4c(=O)c3-c3cccc(F)c3)c3ncnc(N)c23)cc1` (centres unmarked) [Example 48, N-(4-(4-amino-1-(1-(5-fluoro-3-(3-fluorophenyl)-4-oxo-4H-chromen-2-yl)ethyl)-1H-pyrazolo[3,4-d]pyrimidin-3-yl)phenyl)isobutyramide], for which the melting point was in the range of 154 to 157 °C. This compound had an inhibition at 1 µM in data set [2] of 25 to 50%. In addition, in data set [3], the IC50 was ≤ 50 nM and the inhibition at 0.3 µM was in the range of 75 to 100%. The same compound gave an inhibition at 0.3 µM in data set [4] of 50 to 75%.

As for `CC(Nc1ncnc2[nH]cnc12)c1oc2cccc(F)c2c(=O)c1-c1cccc(F)c1` (single isomer, unassigned; (-)) [Example 78, (−)-2-(1-(9H-purin-6-ylamino)ethyl)-5-fluoro-3-(3-fluorophenyl)-4H-chromen-4-one], the melting point was in the range of 205 to 208 °C. This compound also had an inhibition at 1 µM in data set [1] of 0 to 25%. This compound showed an inhibition at 1 µM in data set [2] of 25 to 50%. Further, in data set [4], the half-maximal inhibitory concentration (IC50) was 50 to 100 nM and the inhibition at 0.1 µM lay within 50 to 75%.

Take `CC(c1oc2cccc(F)c2c(=O)c1-c1cccc(F)c1)n1cnc2c(N3CCN(C)CC3)ncnc21` (centres unmarked) [Example 125, 5-fluoro-3-(3-fluorophenyl)-2-(1-(6-(4-methylpiperazin-1-yl)-9H-purin-9-yl)ethyl)-4H-chromen-4-one]: the melting point lay in the range of 199 to 201 °C. Besides, the inhibition at 1 µM in data set [1] fell in the range of 0 to 25%. In data set [4], the inhibition at 0.1 µM was 25 to 50%.

For the origin of these results see patent US11020399B2, “Intermediates useful in the synthesis of compounds as modulators of protein kinases” (Rhizen Pharmaceuticals SA, priority 2011, dated 2021).
